Assay: xn = mol fraction of the nth substance listed

CCCC[N+](C)(C)C[c-]1cccc1.O=S(=O)([N-]S(=O)(=O)C(F)(F)F)C(F)(F)F.[Fe+2].c1cc[cH-]c1 + CC#N
100 kPa
Conditions | electrical conductivity [S/m]
298 K, x1 = 0.03 | 2.17
303 K, x1 = 0.1 | 1.88
308 K, x1 = 0.08 | 2.2
308 K, x1 = 0.2 | 0.945
313 K, x1 = 0.07 | 2.47
318 K, x1 = 0.01 | 1.58
318 K, x1 = 0.06 | 2.67
318 K, x1 = 0.08 | 2.47
318 K, x1 = 0.15 | 1.58
318 K, x1 = 0.2 | 1.14
323 K, x1 = 0.01 | 1.64
323 K, x1 = 0.2 | 1.24
328 K, x1 = 0.05 | 2.95
328 K, x1 = 0.12 | 2.19
333 K, x1 = 0.01 | 1.75
333 K, x1 = 0.02 | 2.5
333 K, x1 = 0.03 | 2.92
333 K, x1 = 0.07 | 3
338 K, x1 = 0.05 | 3.2
338 K, x1 = 0.07 | 3.15
343 K, x1 = 0.07 | 3.28
343 K, x1 = 0.08 | 3.15
343 K, x1 = 0.15 | 2.19
348 K, x1 = 0.02 | 2.76
348 K, x1 = 0.07 | 3.42
348 K, x1 = 0.08 | 3.3
348 K, x1 = 0.12 | 2.74

[N-]=C=S.[NH4+] + CC(=O)[O-].CC[n+]1ccn(C)c1
101 kPa
Conditions | electrical conductivity [S/m] | viscosity [mPa·s]
298.15 K, x1 = 0.3001 | 0.344 | 194.6
298.15 K, x1 = 0.3199 | 0.353 | 195.4
303.15 K, x1 = 0.1002 | 0.371 | 117.6
303.15 K, x1 = 0.1998 | 0.386 | 139.3
303.15 K, x1 = 0.3001 | 0.447 | 141.9
308.15 K, x1 = 0.1998 | 0.491 | 104
308.15 K, x1 = 0.2514 | 0.525 | –
308.15 K, x1 = 0.3413 | 0.587 | –
313.15 K, x1 = 0.3413 | 0.807 | 81.7
318.15 K, x1 = 0.1998 | 0.852 | 61.5
328.15 K, x1 = 0.1002 | – | 34.29
328.15 K, x1 = 0.3199 | – | 39.29
333.15 K, x1 = 0.02 | – | 25.64
333.15 K, x1 = 0.1002 | – | 28.06
333.15 K, x1 = 0.1998 | – | 31.2
333.15 K, x1 = 0.3001 | – | 31.43

CCCCCCCCCC[n+]1ccn(C)c1.[Cl-] + CC(C)O
298.15 K, 101.3 kPa, frequency 5e-05 MHz
Conditions | electrical conductivity [S/m]
x1 = 0.01207 | 0.0497
x1 = 0.02515 | 0.0872
x1 = 0.03936 | 0.126
x1 = 0.05486 | 0.17
x1 = 0.07184 | 0.218
x1 = 0.09051 | 0.266
x1 = 0.1111 | 0.308
x1 = 0.134 | 0.337
x1 = 0.1597 | 0.348
x1 = 0.1884 | 0.343
x1 = 0.2211 | 0.326
x1 = 0.2583 | 0.312
x1 = 0.3013 | 0.325
x1 = 0.3514 | 0.399
x1 = 0.4106 | 0.584
x1 = 0.4815 | 0.944

CS(=O)(=O)[O-].C[N+](C)(CCO)CCO + CC(C)O
viscosity [mPa·s], 101 kPa
Conditions | x1 = 0.0998 | x1 = 0.2001 | x1 = 0.3002 | x1 = 0.4004 | x1 = 0.4982 | x1 = 0.5999 | x1 = 0.6997 | x1 = 0.7978 | x1 = 0.8994 | x1 = 1
298.15 K | 5.62 | 13.5 | 30.1 | 61 | 123 | 227 | 385 | 628 | 1025 | 1495
303.15 K | 4.78 | 11.45 | 24.1 | 47.7 | 86.7 | 168 | 281 | 445 | 712 | 1021
308.15 K | 4.13 | 9.67 | 19.7 | 38 | 67.4 | 128.7 | 210 | 324 | 507 | 716
313.15 K | 3.6 | 8.13 | 16.3 | 30.7 | 53.4 | 89.6 | 159 | 243 | 370 | 513
318.15 K | 3.36 | 6.96 | 13.7 | 25.2 | 43 | 70.7 | 123.6 | 186 | 278 | 378
323.15 K | 2.83 | 6.02 | 11.86 | 21 | 35.1 | 56.7 | 87 | 143.8 | 211 | 282

OC1OC[C@@H](O)[C@H](O)[C@H]1O (some centres not stated) + CCCCCCCCCCCCCCCC[N+](C)(C)C.[Br-] + O
viscosity [mPa·s], 100 kPa
Conditions | 298.15 K | 308.15 K | 318.15 K
x2 = 7.19e-06, x1 = 0.001926 | 0.934 | 0.772 | 0.642
x2 = 7.19e-06, x1 = 0.002323 | 0.941 | 0.779 | 0.647
x2 = 7.19e-06, x1 = 0.002648 | 0.948 | 0.784 | 0.651
x2 = 7.2e-06, x1 = 0.0009003 | 0.914 | 0.756 | 0.629
x2 = 7.2e-06, x1 = 0.001314 | 0.922 | 0.763 | 0.634
x2 = 7.2e-06, x1 = 0.001634 | 0.928 | 0.768 | 0.638
x2 = 1.438e-05, x1 = 0.002366 | 0.948 | 0.784 | 0.651
x2 = 1.438e-05, x1 = 0.002756 | 0.957 | 0.791 | 0.656
x2 = 1.439e-05, x1 = 0.001528 | 0.931 | 0.77 | 0.639
x2 = 1.439e-05, x1 = 0.001964 | 0.94 | 0.777 | 0.645
x2 = 1.44e-05, x1 = 0.0009094 | 0.918 | 0.759 | 0.63
x2 = 1.44e-05, x1 = 0.001186 | 0.923 | 0.764 | 0.634
x2 = 2.157e-05, x1 = 0.002446 | 0.955 | 0.79 | 0.654
x2 = 2.157e-05, x1 = 0.002688 | 0.961 | 0.795 | 0.658
x2 = 2.158e-05, x1 = 0.00199 | 0.945 | 0.782 | 0.647
x2 = 2.159e-05, x1 = 0.001338 | 0.93 | 0.77 | 0.637
x2 = 2.159e-05, x1 = 0.001717 | 0.939 | 0.777 | 0.643
x2 = 2.16e-05, x1 = 0.0009887 | 0.923 | 0.763 | 0.632

CCCCCC[n+]1ccn(C)c1.O=[N+]([O-])c1cn[n-]c1 + CCCCCCCCCCCCCC[P+](CCCCCC)(CCCCCC)CCCCCC.O=S(=O)([N-]S(=O)(=O)C(F)(F)F)C(F)(F)F
Conditions | viscosity [mPa·s]
283.15 K, 100 kPa, x2 = 0.899 | 820

From the CheMixHub ionic liquid set
